Assay results as given in patent EP0358766A1, “METHOD OF STERILIZING PLANT ANTHERS” (VSESOJUZNY NAUCHNO-ISSLEDOVATELSKY INST. SELSKOKHOZYAISTV. …, priority 1988, dated 1989).

How the values were obtained:
[1] = tested on: tetraploidem Roggen Belta; assay: Field test of gametocidal activity, tetraploid rye Belta; type: in vivo; settings: period V, 1% aqueous emulsion, 6 kg/ha in 600 l water
Source text: (§1) Die gametozide Aktivität der erfindungsgemäßen Sterilisationsmittel war in Feldversuchen in verschiedenen bodenklimatischen Zonen mit Teilstücken von 10 m^2 Größe in dreibis viermaliger Wiederholung festgestellt. Jedes Sterilisationsmittel wurde mindenstens 5 Jahre lang geprüft.
(§2) Die Entwicklung der Perioden der Organogenese wird zytologisch überwacht. Die Behandlung von Pflanzen mit dem Sterilisationsmittel erfolgt am Anfang der fünften Periode der Organogenese nach Kupermann.
(§3) Mit dem Ährenschieben verwirklicht man die Isolierung von Hauptähren und anderen Stockwerken in Pergametbeuteln. Bei Weizen und Tritikale werden Einzelisolatoren benutzt. Bei Roggen schließt man je 1 Ähre von […] verschiedenen nebeneinander befindlichen Pflanzen unter einen gemeinsamen Isolator ein. Bei Hirse wird jede Rispe getrennt isoliert. Der Sterilitätsprozentsatz (X) für Weizen, Roggen, Tritikale und Hirse wird nach der Formel [formula] ermittelt.
(§4) Die Kornzahl in nicht isolierten Ähren von Kontrollpflanzen wird bedingt für 100 % Ansetzen bei freier Bestäubung angenommen.
(§5) Um zuverlässige Angaben zu erhalten, verwendet man 20 bis 25 Isolatoren je Wiederholung für Weizen und Tritikale, 10 bis 15 Isolatoren jeder Wiederholung für Roggen und Hirse.
Pflanzen von tetraploidem Roggen Belta werden in der V.Periode der Organogenese (nach Kupermann) mit einer 1%igen wäßrigen Emulsion von 1,1,3-Tribrompropan, 1,1,3--Tribrom-4-chlorbutan, 1,1,2,3-Tetrabrompropan, 1,2,3-Tribrompropan, 1,1,3-Tribrom-3-chlorpropan bzw. 1,2-Dibrom--3-chlorpropan behandelt.
Die Emulsion enthält 0,5 Masse% C12-C14-Kalziumalk^yl-benzolsulfonat und 0,01 Masse% Dimethylsulfoxid. Der Verbrauch an Präparat beträgt 6 kg/ha bei 600 1 Wasserdurchsatz.Die Prüfergebnisse sind in der Tabelle 7 angegeben. Die gleichen Ergebnisse sind bei der Behandlung von tetraploidem Roggen Belta in der VI. Periode der Organogenese erhalten.

[2] = tested on: diploidem Roggen Kharkovskaya 55; assay: Field test of gametocidal activity, diploid rye Kharkovskaya 55; type: in vivo
Source text: as §1, §2, §3, §4, §5
Pflanzen von diploidem Roggen Kharkovskaya 55 werden in der V. Periode der Organogenese mit einer l%igen wäßrigen Emulsion von 1,1,3-Tribrompropan, 1,2,3-Tribrompropan, 1,2-Dibrompropan, 1,1,3-Tribrom-3-chlorpropan, 1,2--Dibrom-3-chlorpropan, 1,1,1,3-Tetrabromheptan, 1,1,3-Tribromheptan bzw. 1,2-Dibromheptan behandelt. Die Emulsion enthält 0,5 Masse% C12-C14-Kalziumalkylbenzolsulfonat und 0,01 Masse% Dimethylformamid als Adjuvans. Der Verbrauch an Präparat beträgt 6 kg/ha bei 600 1 Wasserdurchsatz. Die Prüfergebnisse sind in der Tabelle 13 angegeben. Die gleichen Ergebnisse sind bei der Behandlung von diploidem Roggen Kharkovskaya 55 in der VI. Periode der Organogenese erhalten.

[3] = tested on: Sommerweizens Sorte Moskowskaya 35; assay: Field test of gametocidal activity, spring wheat Moskowskaya 35; type: in vivo, Weizen; settings: for Kornzahl der Ähre bei freier Bestäubung / Kornzahl der Ähre im Isolator / Prozentsatz des Ansetzens von Samen bei freier Bestäubung: Moskowskaya 35, period V, 1% aqueous emulsion, 6 kg/ha in 600 l water; for Prozentsatz des Ansetzens von Samen bei freier Bestäubung: control = 100; for pest or weed control at 6000 g/ha: read-out: Prozentsatz der Sterilität
Source text: as §1, §2, §3, §4, §5
Pflanzen des Sommerweizens Sorte Moskowskaya 35 werden in der V. Periode der Organogenese (nach Kupermann) mit einer l%igen wäßrigen Emulsion von 1,1,3-Tribrompropan, […], 1,1,2,3-Tetrabrompropan, 1,2,3-Tribrompropan, 1,2-Dibrompropan, 1,1,3-Tribrom-3-chlorpropan, 1,2-Dibrom-3-chlorpropan, 1,3-Dibrompropan, 1,1,1,3-Tetrabromheptan bzw. 1,1,3-Tribromheptan behandelt. Die Emulsion enthält als Emulgierungsmittel 0,5 Masse% C12-C14-Kalzium- alkylbenzolsulfonat und als Adjuvans 0,01 Masse% Dimethylformamid. Der Verbrauch an Präparat beträgt 6 kg/ha bei 600 1 Wasserdurchsatz. Als Kontrolle dienen Pflanzen, behandelt mit dem Verdünner ohne Sterilisationsmittel.
Die Prüfergebnisse sind in der Tabelle 2 angegeben. Die gleichen Ergebnisse sind bei der Behandlung des Sommerweizens Sorte Moskowskaya 35 in der VI.Periode der Organogenese erhalten.

diploidem Roggen Chulpan = assay: Field test of gametocidal activity, diploid rye Chulpan; type: in vivo; settings: for Kornzahl der Ähre bei freier Bestäubung / Kornzahl der Ähre im Isolator / Prozentsatz des Ansetzens von Samen bei freier Bestäubung: Chulpan, period V, 1% aqueous emulsion, 10 kg/ha; for Prozentsatz des Ansetzens von Samen bei freier Bestäubung: control = 100; for pest or weed control at 10000 g/ha: read-out: Prozentsatz der Sterilität
Source text: as §1, §2, §3, §4, §5
Pflanzen von diploidem Roggen Chulpan werden in der V.Periode der Organogenese mit einer 1%igen wäßrigen Emulsion von 1,1,3-Tribrompropan, 1,1,3-Tribrom-4-chlorbutan, 1,1,2,3-Tetrabrompropan, 1,2,3-Tribrompropan, 1,2-Dibrompropan, 1,1,3-Tribrom-3-ohlorpropan, 1,2-Dibrom-3--chlorpropan, 1,3-Dibrompropan, 1,1,1,3-Tetrabromheptan, 1,1,3-Tribromheptan bzw. 1,2-Dibromheptan behandelt. Die Emulsion enthält 0,5 Masse% C12-C14-Kalziumalkylbenzolsul- fonat und 0,01 Masse% Dimethylsulfoxid. Der Verbrauch an Präparat beträgt 10 kg/ha. Die Prüfergebnisse sind in der Tabelle 11 angegeben. Die gleichen Ergebnisse sind bei der Behandlung von diploidem Roggen Chulpan in der VI. Periode der Organogenese erhalten.

[4] = tested on: Winterweizens Sorte Mironowskaya 808; assay: Field test of gametocidal activity (anther sterilisation), winter wheat Mironowskaya 808; type: in vivo, Weizen; settings: for Kornzahl der Ähre bei freier Bestäubung / Kornzahl der Ähre im Isolator / Prozentsatz des Ansetzens von Samen bei freier Bestäubung: Mironowskaya 808, period V of organogenesis, 1% aqueous emulsion, 10 kg/ha; for Prozentsatz des Ansetzens von Samen bei freier Bestäubung: control = 100; for pest or weed control at 1 %, 10000 g/ha: read-out: Prozentsatz der Sterilität %
Source text: as §1, §2, §3, §4, §5
Pflanzen des Winterweizens Sorte Mironowskaya 808 werden in der V.Periode der Organogenese durch Zerstäubung der 2%igen wäßrigen Emulsion von 1,1,3-Tribrompropan mit Hilfe einer Rückenspritze behandelt.
Als Emulgierungsmittel setzt man 0,5 Masse% C12-C14--Kalziumalkylbenzolsulphonat zu. Als Adjuvans enthält die Emulsion 0,01 Masse% Dimethylsulfoxid. Der Verbrauch an Präparat beträgt 20 kg/ha bei 1000 Liter Wasserdurchsatz. Als Kontrolle dienen Pflanzen, behandelt mit einem Verdünner ohne Sterilisationsmittel. Die Ergebnisse sind in der Tabelle 1 angegeben.
Der ProzeB wird analog zu dem in Beispiel 1 beschriebenen durchgeführt. Als Sterilisationsmittel verwendet man eine 2%ige waßrige Emulsion von 1,1,3-Tribrom-4-chlorbutan, 1,1,2,3-Tetrabrompropan. Die Prüfergebnisse sind in der Tabelle 1 angegeben.
Der Prozeß wird analog zu dem in Beispiel 1 beschriebenen durchgeführt, nur daß man 1%ige wäßrige Emulsion von 1,2,3-Tribrompropan, 1,2-Dibrompropan, 1,1,3-Tribrom-3--chlorpropan, 1,2-Dibrom-3-chlorpropan, 1,3-Dibrompropan, 1,1,1,3-Tetrabromheptan, 1,1,3-Tribromheptan, 1,2-Dibromheptan verwendet. Die Präparatdosis beträgt 10 kg ha. Die Prüfergebnisse sind in der Tabelle 1 angegeben. Die gleichen Ergebnisse sind bei der Behandlung des Weizens Sorte Mironowskaya 808 in der VI. Periode der Organogenese erhalten.

[5] = Toxicity in animal test (LD50); parameters: species or system Mäuse; settings: in vivo, mice stated only for 1,1,3-Tribrompropan, species not given for the others
Source text: Alle erfindungsgemäßen Polybromalkane, die als Sterilisationsmittel zur Verwendung kommen, waren auf die Toxizität im Tierversuch geprüft. Die Prüfergebnisse haben ergeben, daß die angegebenen Verbindungen von schwacher oder mittlerer Toxizität sind.

[6] = tested on: Sommerweizens Sorte Botanicheskaya 4; assay: Field test of gametocidal activity, spring wheat Botanicheskaya 4; type: in vivo, Weizen; settings: period V, 1% aqueous emulsion, 6 kg/ha in 600 l water
Source text: as §1, §2, §3, §4, §5
Pflanzen des Sommerweizens Sorte Botanicheskaya 4 werden in der V. Periode der Organogenese (nach Kupermann) mit einer 1%igen wäßrigen Emulsion von 1,3-Dibrompropan, 1,1,1,3-Tetrabromheptan, 1,1,2-Tribromheptan bzw. 1,2--Dibromheptan behandelt. Die Emulsion enthält 0,5 Masse% C12-C14-Kalziumalkylbenzolsulfonat und 0,01 Masse% Dimethylsulfoxid als Adjuvans. Der Verbrauch an Präparat beträgt 6 kg/ha bei 600 1 Wasserdurchsatz. Als Kontrolle dienen Pflanzen, behandelt mit dem Verdünner ohne Sterilisationsmittel.
Die Prüfergebnisse sind in der Tabelle 4 angegeben. Die gleichen Ergebnisse sind bei der Behandlung des Sommerweizens Sorte Botanicheskaya 4 in der VI. Periode der Organogenese erhalten.

[7] = tested on: Sommerweizens Sorte Rodina; assay: Field test of gametocidal activity, spring wheat Rodina; type: in vivo, Weizen; settings: period V, 1% aqueous emulsion, 6 kg/ha in 600 l water
Source text: as §1, §2, §3, §4, §5
Pflanzen des Sommerweizens Sorte Rodina werden in der V.Periode der Organogenese (nach Kupermann) mit einer l%igen wäßrigen Emulsion von 1,3-Dibrompropan, 1,1,1,3-Tetrabromheptan, 1,1,3-Tribromheptan bzw. 1,2-Dibromheptan behandelt. Die Emulsion enthalt 0,5 Masse% C12-C14 Kalziumalk^ylbenzol- sulfonat und 0,01 Masse% Dodezylsulfat. Der Verbrauch an Präparat beträgt 6 Kg/ha bei 600 1 Wasserdurchsatz. Als Kontrolle dienen Pflanzen, behandelt mit dem Verdünner ohne Sterilisationsmittel.
Die Prüfergebnisse sind in der Tabelle 3 angegeben. Die gleichen Ergebnisse sind bei der Behandlung des Sommerweizens Sorte Rodina in der VI. Periode der Organogenese erhalten.

[8] = tested on: Hirse Sorte Mironovskoye 94; assay: Field test of gametocidal activity, millet Mironovskoye 94; type: in vivo
Source text: as §1, §2, §3, §4, §5
Pflanzen der Hirse Sorte Mironovskoye 94 werden in der V.Periode der Organogenese mit einer 1%igen wäßrigen Emulsion von 1,1,3-Tribrompropan, 1,2,3-Tribrompropan, 1,2-Dibrompropan, 1,2-Dibrom-3-chlorpropan, 1,3-Dibrompropan, 1,1,1,3-Tetrabromheptan, 1,1,3-Tribromheptan, 1,2-Dibromheptan behandelt. Die Emulsion enthält 0,5 Masse% C12-C14--Kalziumalkylbenzolaulfonat und 0,01 Masse% Dimethylsulfoxid als Adjuvans. Der Verbrauch an Präparat beträgt 6 kg/ha bei 600 1 Wasserdurchsatz. Die Prüfergebnisse sind in der Tabelle 15 angegeben. Die gleichen Ergebnisse sind bei der Behandlung der Hirse Sorte Mironovskoye 94 in der VI. Periode der Organogenese erhalten.

[9] = Kharkovskaya 55, period V, 1% aqueous emulsion, 6 kg/ha in 600 l water
[10] = read-out: Prozentsatz der Sterilität
[11] = Mironovskoye 94, period V, 1% aqueous emulsion, 6 kg/ha in 600 l water

SMILES | Kornzahl der Ähre bei freier Bestäubung [3] | Kornzahl der Ähre im Isolator [3] | Prozentsatz des Ansetzens von Samen bei freier Bestäubung [3] | pest or weed control at 6000 g/ha [3] [%] | Kornzahl der Ähre bei freier Bestäubung (diploidem Roggen Chulpan) | Kornzahl der Ähre im Isolator (diploidem Roggen Chulpan) | Prozentsatz des Ansetzens von Samen bei freier Bestäubung (diploidem Roggen Chulpan) | pest or weed control at 10000 g/ha (diploidem Roggen Chulpan) [%] | Kornzahl der Ähre bei freier Bestäubung [4] | Kornzahl der Ähre im Isolator [4] | Prozentsatz des Ansetzens von Samen bei freier Bestäubung [4] | pest or weed control at 1 %, 10000 g/ha [4] [%] | Kornzahl der Ähre bei freier Bestäubung [6] | Kornzahl der Ähre im Isolator [6] | Prozentsatz der Sterilität [6] | other results
ClC(Br)CC(Br)Br (stereo not drawn) [Beispiel 6, 1,1,3-Tribrom-3--chlorpropan] | 37,8 | 1,2 | 98,9% | 96.3 | 47,7 | 0,6 | 95,2% | 98.8 | 37,0 | 1,2 | 99,2% | 96.8 | – | – | – | Kornzahl der Ähre bei freier Bestäubung [1]: 39,8; Kornzahl der Ähre im Isolator [1]: 0,1; Prozentsatz der Sterilität [1]: 99,9%; Prozentsatz des Ansetzens von Samen bei freier Bestäubung ([1]; control = 100): 90,0%; Kornzahl der Ähre bei freier Bestäubung [2, 9]: 41,7; Kornzahl der Ähre im Isolator [2, 9]: 0,1; Prozentsatz des Ansetzens von Samen bei freier Bestäubung ([2]; Kharkovskaya 55, period V, 1% aqueous emulsion, 6 kg/ha in 600 l water, control = 100): 92,5%; pest or weed control at 6000 g/ha [2, 10]: 99.8%
BrCCCBr [Beispiel 8, 1,3-Dibrompropan] | 32,7 | 0,0 | 85,6% | 100 | 41,7 | 0,1 | 83,2% | 99.8 | 38,7 | 0,0 | 93,0% | 100 | 24,7 | 0,0 | 100,0% | LD50 [5]: 473 ± 25 mg/kg; Kornzahl der Ähre bei freier Bestäubung [7]: 37,1; Kornzahl der Ähre im Isolator [7]: 0,0; Prozentsatz der Sterilität [7]: 100,0%; Prozentsatz des Ansetzens von freier Bestäubung ([7]; control = 100): 91,8%; Kornzahl der Rispe bei freier Bestäubung [8, 11]: 212,7; Kornzahl der Rispe im Isolator [8, 11]: 0,0; Prozentsatz des Ansetzens von Samen bei freier Bestäubung ([8]; Mironovskoye 94, period V, 1% aqueous emulsion, 6 kg/ha in 600 l water, control = 100): 86,9%; pest or weed control at 6000 g/ha [8, 10]: 100%
CCCCCC(Br)C(Br)Br (stereo not drawn) [Beispiel 28, 1,1,2-Tribromheptan] | – | – | – | – | – | – | – | – | – | – | – | – | 29,2 | 0,0 | 100,0% | Prozentsatz des Ansetzens von Samen bei freier Bestäubung ([6]; control = 100): 94,5%
